Values quoted from earlier work in US20250288540A1, “METHODS AND COMPOSITIONS FOR PAIN MANAGEMENT” (SILO PHARMA, INC., priority 2024, published 2025).

How the values were obtained:
[1] = test system: halothane requirements (MAC); conditions: rat
[2] = test system: N-methyl-D-aspartate (NMDA) receptor

SMILES | solubility in ethanol (ethanol) [mg/mL] | solubility in ether (ether) | solubility in methanol (methanol) | activity relative to ketamine in reducing halothane requirements (MAC) [1] | affinity at the NMDA receptor compared with ketamine [2]
CNC1(c2ccccc2Cl)CCCCC1=O.Cl (centres unmarked) [Ketamine hydrochloride, 2-(2-chlorophenyl)-2-(methylamino) cyclohexan-1-one hydrochloride] | ~750 | practically insoluble | freely soluble |  | 
NC1(c2ccccc2Cl)CCCCC1=O (centres unmarked) [Norketamine] |  |  |  | about ⅓ | less affinity
